# From patent publication US7264956B2, “Compounds and methods for inhibiting axillary malodour” (Givaudan SA, priority 2001, dated 2007)
# Experiments:
# Corynebacterium group G = test: Cleavage of the natural malodour precursor by axilla isolate Ax7; type: cell-based; details: 500 ppm precursor, 24 h, 36° C., capillary GC
# Experimental: (§1) The axillary flora of 8 panellists was isolated with the detergent-scrub method: A 6 cm^2 area of the axilla was scrubbed with a phosphate buffer at pH 7 containing 1% Tween 80. The samples were spread-plated on tryptic soy agar amended with 5 g/L of Tween 80 and 1 g/L of lecithin. Single isolates obtained after 48 h incubation were subcultured and characterised. A total of 24 individual strains were identified based on colony and cell morphology, gram-reaction, lipophilic growth, lipase reaction and API identification kits (bioMerieux, France; coryneforms with the API coryne kit and cocci with the ID Staph 32 kit). The strains were grown overnight in a liquid medium (Mueller-Hinton amended with 0.01% Tween 80), harvested by centrifugation and resuspended to a final OD600 of 1 in a semi-synthetic medium (Per litre: 3 g KH2PO4, 1.9 g K2HPO4, 0.2 g yeast extract, 0.2 g MgSO4, 1.4 g NaCl, 1 g NH4Cl, 10 mg MnCl2, 1 mg Fe3Cl2, 1 mg CaCl2). Aliquots of this stationary culture were then amended with a final concentration of 500 ppm of Nα-3-hydroxy-3-methyl-hexanoyl-L-glutamine (5% stock solution dissolved in methanol). After 24 h incubation (with shaking at 300 rpm; 36° C.) the samples were extracted and the amount of released 3-hydroxy-3-methyl-hexanoic acid was determined by capillary GC. […]
# Micrococcus luteus = test: Cleavage of the natural malodour precursor by axilla isolate Ax9; type: cell-based; details: 500 ppm precursor, 24 h, 36° C., capillary GC
# Experimental: as §1
# Staphylococcus capitis = test: Cleavage of the natural malodour precursor by axilla isolate Ax1; type: cell-based; details: 500 ppm precursor, 24 h, 36° C., capillary GC
# Experimental: as §1
# [1] = tested on: Staphylococcus epidermidis; test: Cleavage of the natural malodour precursor by axilla isolate Ax6; type: cell-based; details: 500 ppm precursor, 24 h, 36° C., capillary GC
# Experimental: as §1
# [2] = molecular target: T1, enzyme extracted from Corynebacterium striatum A×20 (AMRE, Nα-acyl-glutamine-aminoacylase) (Corynebacterium striatum, UniProt Q8GGD4); test: Substrate specificity of the enzyme (capillary GC of released acid or alcohol); type: biochemical; details: 500 ppm in Buffer A, 24 h incubation
# T1 construct: an enzyme may be isolated from cellular extracts obtained from wild-type bacterial strains; endogenous in cells; host or cells: Corynebacterium striatum Ax20 (DSM 14267), mechanically disrupted; crude extract or chromatographically purified enzyme
# T1 sequence (Q8GGD4 2-400): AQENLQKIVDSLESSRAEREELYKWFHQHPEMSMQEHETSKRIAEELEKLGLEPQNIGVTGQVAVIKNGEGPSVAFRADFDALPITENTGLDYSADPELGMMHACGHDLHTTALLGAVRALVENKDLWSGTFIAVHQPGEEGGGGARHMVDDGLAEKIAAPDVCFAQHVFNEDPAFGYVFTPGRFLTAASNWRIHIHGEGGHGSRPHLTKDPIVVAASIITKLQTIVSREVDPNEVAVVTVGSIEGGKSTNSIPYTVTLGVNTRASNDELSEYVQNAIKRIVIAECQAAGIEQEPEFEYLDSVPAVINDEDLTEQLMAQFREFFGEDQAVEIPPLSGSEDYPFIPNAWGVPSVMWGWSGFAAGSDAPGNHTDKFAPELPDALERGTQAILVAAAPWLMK
# Experimental: To understand in detail the structural requirements of substrates, the enzyme extracted from Corynebacterium striatum A×20 was incubated with a wide variety of said compounds related to the originally isolated Nα-3-methyl-3-hydroxy-hexanoyl-L-glutamine present in sweat. Each compound was used at a concentration of 500 ppm in Buffer A, and analysis of released acid or alcohol was done by capillary GC after 24 h of incubation. First, different modifications at the N-terminus were tested.
# Corynebacterium jeikeium [3] = test: Cleavage of the natural malodour precursor by axilla isolate Ax15; type: cell-based; details: 500 ppm precursor, 24 h, 36° C., capillary GC
# Experimental: as §1
# Corynebacterium bovis = test: Cleavage of the natural malodour precursor by axilla isolate Ax3; type: cell-based; details: 500 ppm precursor, 24 h, 36° C., capillary GC
# Experimental: as §1
# Corynebacterium jeikeium [4] = test: Cleavage of the natural malodour precursor by axilla isolate Ax19; type: cell-based; details: 500 ppm precursor, 24 h, 36° C., capillary GC
# Experimental: as §1
# Corynebacterium striatum = test: Cleavage of the natural malodour precursor by axilla isolate Ax20; type: cell-based; details: 500 ppm precursor, 24 h, 36° C., capillary GC
# Experimental: as §1
smiles,measurement,setting,value
"CCCC(C)(O)CC(=O)N[C@@H](CCC(N)=O)C(=O)O (stereo partly drawn) [compound 1, Nα-(3-hydroxy-3-methyl-hexanoyl)-L-glutamine]",3-hydroxy-3-methyl-hexanoic acid released,Corynebacterium group G,0 ppm
same,3-hydroxy-3-methyl-hexanoic acid released,Micrococcus luteus,0 ppm
same,3-hydroxy-3-methyl-hexanoic acid released,Staphylococcus capitis,0 ppm
same,3-hydroxy-3-methyl-hexanoic acid released,[1],0 ppm
same,Cleavage by enzyme,[2],++ (++ cleavage 10–50%)
same,3-hydroxy-3-methyl-hexanoic acid released,Corynebacterium jeikeium [3],37.4 ppm
same,3-hydroxy-3-methyl-hexanoic acid released,Corynebacterium bovis,0 ppm
same,3-hydroxy-3-methyl-hexanoic acid released,Corynebacterium jeikeium [4],105.1 ppm
same,3-hydroxy-3-methyl-hexanoic acid released,Corynebacterium striatum,262.7 ppm
